US8168233B2 (Amylin Pharmaceuticals, Inc., priority 2002, dated 2012)
Where no end group is shown, it is not given here.

What was measured:
[1] = Amylin activity in vivo in treated test animals (hyperlactemia followed by hyperglycemia); settings: e.g., provoking marked hyperlactemia followed by hyperglycemia
rat pancreas = test: Inhibition of CCK-8 stimulated lipase and amylase secretion in rat pancreas (pancreatic juice collection in anesthetized rats); assay type: in vivo; settings: for Amylase, % from CCK-8 stimulated / Lipase, % from CCK-8 stimulated / Pancreatic flow, % from CCK-8 stimulated: decrease versus CCK-8 alone
Procedure: Tracheotomy and cannulation of the right femoral artery were performed and body temperature was controlled with a thermoregulator (Model 73A, YSI, Yellow Springs, Ohio, USA) that switched a heated operating table. The femoral arterial line, used for blood sampling, was perfused with heparinized saline (2 u/ml) and connected to a pressure transducer for blood pressure recording (Spectramed P23XL transducer, Model 13-4615-58 amplifier, Gould, Cleveland, Ohio, USA). Through a midline incision two polyethylene cannulae were inserted into the common bile-pancreatic duct at a point about 0.5 cm above where the duct enters the pancreas. The first cannula was inserted up toward the liver to collect bile. The other end of this cannula was placed into the duodenum through a small incision in the duodenum. Thus, bile flowed directly from the liver to the small intestine, being shunted away from the pancreas completely.
A second polyethylene cannula was inserted into the common bile-pancreatic duct near the first but in the opposite direction to collect pancreatic juice. The other end of the pancreatic duct was tied off with a suture just at the point where it enters the duodenum, forcing any pancreatic juice produced to flow through the second cannula for collection. Pancreatic juice was collected every 15 min from −30 to 90 min. […] The volume of juice was measured and aliquots taken for enzymes determination. Amylase and lipase, which are secreted in pancreatic juice in an active form, were tested using diagnostic kits (Lipase-PS assay kit, Sigma Diagnostics Catalog #805-A and Amylase 3 assay kit, Sigma Diagnostics Catalog #577-3, Sigma Diagnostics, St. Louis, Mo., USA). To perform both assays, pancreatic juice was diluted with saline in proportion 1:2000. Activity of enzymes was expressed in units per 15 min (activity in pancreatic juice collected every 15 min).

[2] = test system: caerulein-induced pancreatitis in ICR(CD-1) male mice; test: Effect of amylin on caerulein-induced pancreatitis (plasma amylase); assay type: in vivo; settings: amylin at levels as low as 0.01 μg injected at t=−5 min; plasma at 9 hours after first caerulein injection
Procedure: Male ICR mice, weighing approximately 20 g, were fasted overnight and throughout the experiment, but were allowed access to water ad libitum. […] At t=0, 0.01 μg/kg of caerulein in all but the normal group of mice. The dosing regimen for caerulein was repeated 3 times at 2 hour intervals. At t=9 hours, i.e., 9 hours after the first caerulein injection, the mice were bleed (orbital sinus) and the plasma assayed for amylase (Amylase 3 assay kit, Sigma Diagnostics Catalog #577-3, Sigma Diagnostics, St. Louis, Mo., USA).

[3] = test system: pancreatic enzyme secretion; settings: rat model, doses resulting in physiological plasma concentrations; cited from earlier work
[4] = human, in vivo; cited from earlier work
soleus muscle = settings: read-out: EC50 in the soleus muscle assay; typical range of amylin preparations; […] insulin
Procedure: The tendons of the muscles are ligated before attachment to stainless steel clips. […] Flasks are sealed and gassed continuously with O2 and CO2 in the ratio 19:1 (v/v). After pre-incubation of muscles in this medium for 30 min at 37° C. in an oscillating water bath, the muscles strips are transferred to similar vials containing identical medium (except pyruvate) with added [U-^14C] glucose (0.5 μCi/ml) and insulin (100 μU/ml). […] At the end of the incubation period, muscles are blotted and rapidly frozen in liquid N2. The concentration of lactate in the incubation medium can be determined spectrophotometrically and [U-^14C]glucose incorporation in glycogen measured.
Male Harlan Sprague-Dawley rats of approximately 200 g mass were used in order to maintain mass of the split soleus muscle less than 40 mg. The animals were fasted for 4 hours prior to sacrifice by decapitation. The skin was stripped from the lower limb which was then pinned out on corkboard. The tendo achilles was cut just above os calcis and m. gastrocnemius reflected out from the posterior aspect of the tibia. […]
^14C-glycogen determination was performed in a 7 mL scintillation vial. […] The remaining glycogen was redissolved in 1 mL water and 4 mL scintillation fluid and counted for ^14C. […]

[5] = Amylin 1 μg s.c. alone, no CCK-8
[6] = Amylin 10 μg s.c. alone, no CCK-8
[7] = CCK-8 1 μg and Amylin 0.1 μg s.c.
[8] = CCK-8 1 μg and Amylin 0.3 μg s.c.
[9] = CCK-8 1 μg and Amylin 1.0 μg s.c.
[10] = CCK-8 1 μg and Amylin 10.0 μg s.c.
[11] = s.c. amylin with CCK-8 1 μg, dose-dependent
[12] = ±0.09 log units, first ED50 sentence of b123
[13] = ±0.09 log units, second ED50 sentence of b123

## des-^1Lys-h-amylin (CNTATCATQRLANFLVHSSNNFGAILSSTNVGSNTY; ends and bridges not checked; cysteine pairing not given here; UniProt P10997 35-70, looked up, fragment)
[1]
  amylin activity in vivo: show amylin activity in vivo

## cholecystokinin octapeptide [CCK-8, reference compound]
Rat pancreas; CCK-8 1 μg s.c. alone
  Amylase: 459.76 ± 52.49 U/45 min
  Lipase: 723.56 ± 100.56 U/45 min
  Pancreatic flow: 99 ± 13 μl/45 min

## Amylin: rat amylin (AR905-80) in Example II; amylin (AC128, Amylin Pharmaceuticals, Inc.) in Example I; 37 amino acid peptide hormone (KCNTATCATQRLANFLVHSSNNFGAILSSTNVGSNTY)
[2]
  reduction of elevated plasma amylase produced by caerulein: effectively reduce the elevated levels of plasma amylase
Rat pancreas; [5]
  Amylase: 80.21 ± 35.71 U/45 min
  Lipase: 149.51 ± 86.79 U/45 min
  Pancreatic flow: 30 ± 6 μl/45 min
Rat pancreas; [6]
  Amylase: 61.95 ± 24.51 U/45 min
  Lipase: 64.67 ± 21.59 U/45 min
  Pancreatic flow: 13 ± 4 μl/45 min
Rat pancreas; [7]
  Amylase: 340.98 ± 40.91 U/45 min
  Lipase: 472.82 ± 58.67 U/45 min
  Pancreatic flow: 78 ± 8 μl/45 min
  Amylase, % from CCK-8 stimulated: 25.83%
  Lipase, % from CCK-8 stimulated: 34.65%
  Pancreatic flow, % from CCK-8 stimulated: 21.21%
Rat pancreas; [8]
  Amylase: 271.73 ± 48.38 U/45 min
  Lipase: 309.30 ± 74.31 U/45 min
  Pancreatic flow: 67 ± 6 μl/45 min
  Amylase, % from CCK-8 stimulated: 40.90%
  Lipase, % from CCK-8 stimulated: 57.25%
  Pancreatic flow, % from CCK-8 stimulated: 32.32%
Rat pancreas; [9]
  Amylase: 193.93 ± 34.40 U/45 min
  Lipase: 232.41 ± 58.01 U/45 min
  Pancreatic flow: 58 ± 12 μl/45 min
  Amylase, % from CCK-8 stimulated: 57.32%
  Lipase, % from CCK-8 stimulated: 67.87%
  Pancreatic flow, % from CCK-8 stimulated: 41.41%
Rat pancreas; [10]
  Amylase: 353.68 ± 78.85 U/45 min
  Lipase: 370.65 ± 85.67 U/45 min
  Pancreatic flow: 90 ± 13 μl/45 min
  Amylase, % from CCK-8 stimulated: 23.07%
  Lipase, % from CCK-8 stimulated: 48.77%
  Pancreatic flow, % from CCK-8 stimulated: 9.09%
Rat pancreas; [11]
  inhibition of cholecystokinin stimulated pancreatic amylase activity (maximum): up to 67.9%
  inhibition of secretion of cholecystokinin stimulated pancreatic lipase (maximum): up to 57.3%
Rat pancreas; [12]
  ED50 for suppression of pancreatic amylase activity: 129 pmol/kg
  ED50 for suppression of pancreatic lipase activity: 129 pmol/kg
Rat pancreas; [13]
  ED50 for suppression of CCK-8 stimulated pancreatic amylase activity: 123 pmol/kg
  ED50 for suppression of CCK-8 stimulated pancreatic lipase activity: 123 pmol/kg
[3]
  effect on basal pancreatic enzyme secretion: no effect
[4]
  tolerability: well tolerated

## des-^1Lys^18Arg^25,28Pro-h-amylin
[1]
  amylin activity in vivo: show amylin activity in vivo

## CC[C@H](C)[C@H](NC(=O)[C@H](C)NC(=O)CNC(=O)[C@H](Cc1ccccc1)NC(=O)[C@H](CC(N)=O)NC(=O)[C@H](CC(N)=O)NC(=O)[C@H](CO)NC(=O)[C@H](CO)NC(=O)[C@H](Cc1c[nH]cn1)NC(=O)[C@@H](NC(=O)[C@H](CC(C)C)NC(=O)[C@H](Cc1ccccc1)NC(=O)[C@H](CC(N)=O)NC(=O)[C@H](C)NC(=O)[C@H](CC(C)C)NC(=O)[C@H](CCCNC(=N)N)NC(=O)[C@H](CCC(N)=O)NC(=O)[C@@H](NC(=O)[C@H](C)NC(=O)[C@@H]1CSSC[C@H](NC(=O)[C@@H](N)CCCCN)C(=O)N[C@@H](CC(N)=O)C(=O)N[C@@H]([C@@H](C)O)C(=O)N[C@@H](C)C(=O)N[C@@H]([C@@H](C)O)C(=O)N1)[C@@H](C)O)C(C)C)C(=O)N[C@@H](CC(C)C)C(=O)N[C@@H](CO)C(=O)N[C@@H](CO)C(=O)N[C@H](C(=O)N[C@@H](CC(N)=O)C(=O)N[C@H](C(=O)NCC(=O)N[C@@H](CO)C(=O)N[C@@H](CC(N)=O)C(=O)N[C@H](C(=O)N[C@@H](Cc1ccc(O)cc1)C(N)=O)[C@@H](C)O)C(C)C)[C@@H](C)O [human amylin]
Soleus muscle
  EC50: 1 to 10 nM

## ^28Pro-h-amylin (KCNTATCATQRLANFLVHSSNNFGAILPSTNVGSNTY)
[1]
  amylin activity in vivo: show amylin activity in vivo
